Several values for one entry are separate records, joined by “and”; a condition that tells them apart may be missing. Identical values can stand only once. Inconclusive results and toxic doses are left out. Rule for the calls: active = survival T/C of 150% or more; inactive = T/C below 125% in these data.
Test system: BDF1 mice, intracerebral L1210 leukemia, survival T/C
Test: NCI In Vivo Anticancer Drug Screen. Data for tumor model L1210 Leukemia (intracerebral) in B6D2F1 (BDF1) mice
Conditions: higher = longer survival
Method in brief: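 Tumour was transplanted, animals received compound or vehicle, then survival in each group was measured and treated divided by control.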

[1] = endpoint: mean survival time, dose: 18.0 mg/kg/injection, schedule: Q01DX001 (ip), vehicle: carboxymethylcellulose (CMC)

Measured: T/C

O=NN(CCCl)C(=O)Nc1ccc(C(=O)O)cc1
inactive: endpoint: mean survival time, dose: 2.5 mg/kg/injection, schedule: Q01DX001 (ip), vehicle: carboxymethylcellulose (CMC) 101 % of control | endpoint: mean survival time, dose: 3.7 mg/kg/injection, schedule: Q01DX001 (ip), vehicle: carboxymethylcellulose (CMC) 97 % of control | endpoint: mean survival time, dose: 5.0 mg/kg/injection, schedule: Q01DX001 (ip), vehicle: carboxymethylcellulose (CMC) 106 % of control | endpoint: mean survival time, dose: 6.0 mg/kg/injection, schedule: Q01DX001 (ip), vehicle: carboxymethylcellulose (CMC) 100 % of control | endpoint: mean survival time, dose: 7.5 mg/kg/injection, schedule: Q01DX001 (ip), vehicle: carboxymethylcellulose (CMC) 101 % of control | endpoint: mean survival time, dose: 8.0 mg/kg/injection, schedule: Q01DX001 (ip), vehicle: carboxymethylcellulose (CMC) 106 % of control | endpoint: mean survival time, dose: 12.0 mg/kg/injection, schedule: Q01DX001 (ip), vehicle: carboxymethylcellulose (CMC) 108 % of control | [1] 104 % of control

CN(N=O)C(=O)N[C@@H](C=O)[C@@H](O)[C@H](O)[C@H](O)CO
inactive: endpoint: mean survival time, dose: 15.0 mg/kg/injection, schedule: Q01DX009 (ip), vehicle: saline 105 % of control | endpoint: mean survival time, dose: 22.0 mg/kg/injection, schedule: Q01DX009 (ip), vehicle: other 98 % of control | endpoint: mean survival time, dose: 30.0 mg/kg/injection, schedule: Q01DX005 (ip), vehicle: saline 105 % of control | endpoint: mean survival time, dose: 30.0 mg/kg/injection, schedule: Q01DX009 (ip), vehicle: saline 108 % of control | endpoint: mean survival time, dose: 33.0 mg/kg/injection, schedule: Q01DX009 (ip), vehicle: other 100 % of control | endpoint: mean survival time, dose: 50.0 mg/kg/injection, schedule: Q01DX009 (ip), vehicle: other 95 % of control | endpoint: mean survival time, dose: 60.0 mg/kg/injection, schedule: Q01DX005 (ip), vehicle: saline 101 % of control | endpoint: mean survival time, dose: 60.0 mg/kg/injection, schedule: Q01DX009 (ip), vehicle: saline 109 % of control | endpoint: mean survival time, dose: 75.0 mg/kg/injection, schedule: Q01DX009 (ip), vehicle: other 94 % of control | endpoint: mean survival time, dose: 113.0 mg/kg/injection, schedule: Q01DX009 (ip), vehicle: other 93 % of control | endpoint: mean survival time, dose: 120.0 mg/kg/injection, schedule: Q01DX005 (ip), vehicle: saline 107 % of control | endpoint: mean survival time, dose: 120.0 mg/kg/injection, schedule: Q01DX009 (ip), vehicle: saline 113 % of control | endpoint: mean survival time, dose: 240.0 mg/kg/injection, schedule: Q01DX005 (ip), vehicle: saline 105 % of control

COS(C)(=O)=O
inactive: endpoint: median survival time, dose: 16.0 mg/kg/injection, schedule: Q01DX005 (ip), vehicle: saline 104 % of control | endpoint: median survival time, dose: 32.0 mg/kg/injection, schedule: Q01DX005 (ip), vehicle: saline 99 % of control | endpoint: median survival time, dose: 64.0 mg/kg/injection, schedule: Q01DX005 (ip), vehicle: saline 99 % of control | endpoint: median survival time, dose: 128.0 mg/kg/injection, schedule: Q01DX005 (ip), vehicle: saline 101 % of control

CC(C)(C)C1CCC(NC(=O)N(CCCl)N=O)CC1 (stereo not given)
active: endpoint: mean survival time, dose: 177.0 mg/kg/injection, schedule: Q01DX001 (ip), vehicle: other 170 % of control | endpoint: mean survival time, dose: 250.0 mg/kg/injection, schedule: Q01DX001 (ip), vehicle: other 156 % of control and 158 % of control | endpoint: mean survival time, dose: 354.0 mg/kg/injection, schedule: Q01DX001 (ip), vehicle: other 247 % of control | endpoint: mean survival time, dose: 375.0 mg/kg/injection, schedule: Q01DX001 (ip), vehicle: other 196 % of control and 210 % of control | endpoint: mean survival time, dose: 472.0 mg/kg/injection, schedule: Q01DX001 (ip), vehicle: other 155 % of control | endpoint: mean survival time, dose: 500.0 mg/kg/injection, schedule: Q01DX001 (ip), vehicle: other 186 % of control and 201 % of control | endpoint: mean survival time, dose: 750.0 mg/kg/injection, schedule: Q01DX001 (ip), vehicle: other 152 % of control
inactive: endpoint: mean survival time, dose: 708.0 mg/kg/injection, schedule: Q01DX001 (ip), vehicle: other 86 % of control

CNC(=O)NC(=O)N(C)N=O
inactive: endpoint: mean survival time, dose: 15.0 mg/kg/injection, schedule: Q01DX001 (ip), vehicle: carboxymethylcellulose (CMC) 105 % of control | endpoint: mean survival time, dose: 22.6 mg/kg/injection, schedule: Q01DX001 (ip), vehicle: carboxymethylcellulose (CMC) 105 % of control | endpoint: mean survival time, dose: 34.0 mg/kg/injection, schedule: Q01DX001 (ip), vehicle: carboxymethylcellulose (CMC) 98 % of control | endpoint: mean survival time, dose: 51.0 mg/kg/injection, schedule: Q01DX001 (ip), vehicle: carboxymethylcellulose (CMC) 112 % of control | endpoint: mean survival time, dose: 77.0 mg/kg/injection, schedule: Q01DX001 (ip), vehicle: carboxymethylcellulose (CMC) 109 % of control and 111 % of control | endpoint: mean survival time, dose: 117.0 mg/kg/injection, schedule: Q01DX001 (ip), vehicle: carboxymethylcellulose (CMC) 91 % of control | endpoint: mean survival time, dose: 175.0 mg/kg/injection, schedule: Q01DX001 (ip), vehicle: carboxymethylcellulose (CMC) 87 % of control

CC1CCCC(NC(=O)N(CCCl)N=O)C1 (stereo not given)
inactive: endpoint: mean survival time, dose: 286.0 mg/kg/injection, schedule: Q01DX001 (ip), vehicle: other 92 % of control
active: endpoint: mean survival time, dose: 27.0 mg/kg/injection, schedule: Q01DX001 (ip), vehicle: other 174 % of control | endpoint: mean survival time, dose: 42.0 mg/kg/injection, schedule: Q01DX001 (ip), vehicle: other 150 % of control and 251 % of control | endpoint: mean survival time, dose: 62.0 mg/kg/injection, schedule: Q01DX001 (ip), vehicle: other 256 % of control and 273 % of control | endpoint: mean survival time, dose: 71.0 mg/kg/injection, schedule: Q01DX001 (ip), vehicle: other 261 % of control | endpoint: mean survival time, dose: 93.0 mg/kg/injection, schedule: Q01DX001 (ip), vehicle: other 205 % of control and 223 % of control

O=NN(CCCl)C(=O)NC1C2CC3CC(C2)CC1C3 (stereo not given)
active: endpoint: mean survival time, dose: 45.0 mg/kg/injection, schedule: Q01DX001 (ip), vehicle: other 175 % of control and 231 % of control | endpoint: mean survival time, dose: 91.0 mg/kg/injection, schedule: Q01DX001 (ip), vehicle: other 340 % of control and 376 % of control | endpoint: mean survival time, dose: 144.0 mg/kg/injection, schedule: Q01DX001 (ip), vehicle: other 153 % of control | endpoint: mean survival time, dose: 181.0 mg/kg/injection, schedule: Q01DX001 (ip), vehicle: other 250 % of control and 335 % of control | endpoint: mean survival time, dose: 215.0 mg/kg/injection, schedule: Q01DX001 (ip), vehicle: other 238 % of control | endpoint: mean survival time, dose: 322.0 mg/kg/injection, schedule: Q01DX001 (ip), vehicle: other 217 % of control
inactive: endpoint: mean survival time, dose: 22.0 mg/kg/injection, schedule: Q01DX001 (ip), vehicle: other 109 % of control and 119 % of control | endpoint: mean survival time, dose: 362.0 mg/kg/injection, schedule: Q01DX001 (ip), vehicle: other 103 % of control

C[C@@H](CN1CC(=O)NC(=O)C1)N1CC(=O)NC(=O)C1
inactive: endpoint: median survival time, dose: 8.0 mg/kg/injection, schedule: Q01DX009 (ip), vehicle: water 112 % of control | endpoint: median survival time, dose: 16.0 mg/kg/injection, schedule: Q01DX009 (ip), vehicle: water 121 % of control and 123 % of control | endpoint: median survival time, dose: 128.0 mg/kg/injection, schedule: Q01DX009 (ip), vehicle: water 123 % of control | endpoint: median survival time, dose: 256.0 mg/kg/injection, schedule: Q01DX009 (ip), vehicle: water 111 % of control | endpoint: median survival time, dose: 512.0 mg/kg/injection, schedule: Q01DX009 (ip), vehicle: water 113 % of control

CN1CCN(CCCN2c3ccccc3Sc3ccc(C(F)(F)F)cc32)CC1
inactive: endpoint: mean survival time, dose: 44.0 mg/kg/injection, schedule: Q04DX003 (ip), vehicle: water 108 % of control

N#Cc1ccc(NC(=O)N(CCCl)N=O)cc1
inactive: endpoint: mean survival time, dose: 9.37 mg/kg/injection, schedule: Q01DX001 (ip), vehicle: carboxymethylcellulose (CMC) 95 % of control | endpoint: mean survival time, dose: 18.75 mg/kg/injection, schedule: Q01DX001 (ip), vehicle: carboxymethylcellulose (CMC) 91 % of control | endpoint: mean survival time, dose: 37.5 mg/kg/injection, schedule: Q01DX001 (ip), vehicle: carboxymethylcellulose (CMC) 104 % of control | endpoint: mean survival time, dose: 75.0 mg/kg/injection, schedule: Q01DX001 (ip), vehicle: carboxymethylcellulose (CMC) 102 % of control | endpoint: mean survival time, dose: 150.0 mg/kg/injection, schedule: Q01DX001 (ip), vehicle: carboxymethylcellulose (CMC) 90 % of control

N[C@@H](Cc1ccc(N(CCCl)CCCl)cc1)C(=O)O
inactive: endpoint: mean survival time, dose: 1.0 mg/kg/injection, schedule: Q01DX009 (ip), vehicle: saline 111 % of control | endpoint: mean survival time, dose: 1.0 mg/kg/injection, schedule: Q01DX Z (ip), vehicle: carboxymethylcellulose (CMC) 98 % of control | endpoint: mean survival time, dose: 1.13 mg/kg/injection, schedule: Q01DX001 (ip), vehicle: carboxymethylcellulose (CMC) 104 % of control and 97 % of control | endpoint: mean survival time, dose: 2.0 mg/kg/injection, schedule: Q01DX009 (ip), vehicle: saline 114 % of control | endpoint: mean survival time, dose: 2.0 mg/kg/injection, schedule: Q01DX Z (ip), vehicle: carboxymethylcellulose (CMC) 111 % of control | endpoint: mean survival time, dose: 2.25 mg/kg/injection, schedule: Q01DX001 (ip), vehicle: carboxymethylcellulose (CMC) 103 % of control and 104 % of control | endpoint: mean survival time, dose: 3.0 mg/kg/injection, schedule: Q01DX001 (ip), vehicle: carboxymethylcellulose (CMC) 103 % of control and 108 % of control | endpoint: mean survival time, dose: 4.5 mg/kg/injection, schedule: Q01DX001 (ip), vehicle: carboxymethylcellulose (CMC) 104 % of control and 110 % of control | endpoint: mean survival time, dose: 8.0 mg/kg/injection, schedule: Q01DX Z (ip), vehicle: carboxymethylcellulose (CMC) 102 % of control | endpoint: mean survival time, dose: 9.0 mg/kg/injection, schedule: Q01DX001 (ip), vehicle: carboxymethylcellulose (CMC) 119 % of control and 120 % of control | endpoint: mean survival time, dose: 12.5 mg/kg/injection, schedule: Q01DX Z (ip), vehicle: carboxymethylcellulose (CMC) 111 % of control and 88 % of control | [1] 122 % of control | endpoint: mean survival time, dose: 25.0 mg/kg/injection, schedule: Q01DX Z (ip), vehicle: carboxymethylcellulose (CMC) 88 % of control | endpoint: mean survival time, dose: 29.0 mg/kg/injection, schedule: Q01DX001 (ip), vehicle: carboxymethylcellulose (CMC) 115 % of control
active: endpoint: mean survival time, dose: 14.0 mg/kg/injection, schedule: Q01DX001 (ip), vehicle: carboxymethylcellulose (CMC) 155 % of control

Source: PubChem BioAssay AID252 (DTP/NCI, 2004)
